Columns and labels:
Assay type in all cases: cell-based
Moraxella catarrhalis = assay: MIC against Gram-negative bacteria: Moraxella catarrhalis; details: for MIC M. catarrhalis / MIC (μg/mL) M. catarrhalis: 5×10^5 CFU/mL
Summary of the method: (§1)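 First, colonies from LB agar were grown in LB at 37° C, 185 rpm, to McFarland turbidity 0.5, then centrifuged and resuspended in fresh LB. Next, wells received 5×10^5 CFU/mL bacteria plus two-fold serially diluted EGF domain protein (triplicate). Finally, plates were shaken at 37° C and the no-growth concentration taken as MIC.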

E. coli DH5α = assay: Antibacterial activity: MIC and growth curve against E. coli DH5α in 96-well plate; details: minimal inhibitory concentration against E. coli DH5α; 96-well plate, 5×10^5 CFU/mL, 37° C., judged after 8 h
Summary of the method: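 Log-phase bacteria (OD600 ~0.5) resuspended in LB at 5×10^5 CFU/mL, exposed to recombinant protein at 50, 25, 12.5 μg/mL final in triplicate, 37 °C shaking at 175 rpm. OD600 read every 30 min; MIC is lowest concentration showing no growth.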

Citrobacter diversus = assay: MIC against Gram-negative bacteria: Citrobacter diversus; details: for MIC C. diversus / MIC (μg/mL) C. diversus: 5×10^5 CFU/mL
Summary of the method: as §1

Klebsiella pneumonia = assay: MIC against Gram-negative bacteria: Klebsiella pneumonia; details: for MIC K. pneumonia / MIC (μg/mL) K. pneumonia: 5×10^5 CFU/mL
Summary of the method: as §1

Proteus vulgaris = assay: MIC against Gram-negative bacteria: Proteus vulgaris; details: for MIC P. vulgaris / MIC (μg/mL) P. vulgaris: 5×10^5 CFU/mL
Summary of the method: as §1

Proteus mirabilis = assay: MIC against Gram-negative bacteria: Proteus mirabilis; details: for MIC P. mirabilis / MIC (μg/mL) P. mirabilis: 5×10^5 CFU/mL
Summary of the method: as §1

Aeromonas hydrophila = assay: MIC against Gram-negative bacteria: Aeromonas hydrophila; details: for MIC A. hydrophila / MIC (μg/mL) A. hydrophila: 5×10^5 CFU/mL
Summary of the method: as §1

E. coli BL21 = assay: MIC against Gram-negative bacteria: E. coli BL21; details: for MIC E. coli BL21 / MIC (μg/mL) E. coli BL21: 5×10^5 CFU/mL
Summary of the method: as §1

Serratia marcescens = assay: MIC against Gram-negative bacteria: Serratia marcescens; details: for MIC S. marcescens / MIC (μg/mL) S. marcescens: 5×10^5 CFU/mL
Summary of the method: as §1

Pseudomonas aeruginosa = assay: MIC against Gram-negative bacteria: Pseudomonas aeruginosa; details: for MIC P. aeruginosa / MIC (μg/mL) P. aeruginosa: 5×10^5 CFU/mL
Summary of the method: as §1

Enterobacter cloacae = assay: MIC against Gram-negative bacteria: Enterobacter cloacae; details: for MIC E. cloacae / MIC (μg/mL) E. cloacae: 5×10^5 CFU/mL
Summary of the method: as §1

[1] = 10 h cultivation at 37° C., two-fold serial dilution
[2] = M. catarrhalis, 10 h cultivation at 37° C.
[3] = C. diversus, 10 h cultivation at 37° C.
[4] = K. pneumonia, 10 h cultivation at 37° C.
[5] = P. vulgaris, 10 h cultivation at 37° C.
[6] = P. mirabilis, 10 h cultivation at 37° C.
[7] = A. hydrophila, 10 h cultivation at 37° C.
[8] = E. coli BL21, 10 h cultivation at 37° C.
[9] = S. marcescens, 10 h cultivation at 37° C.
[10] = P. aeruginosa, 10 h cultivation at 37° C.
[11] = E. cloacae, 10 h cultivation at 37° C.
[12] = Moraxella catarrhalis, 96-well plate, 37° C., 10 h
[13] = Citrobacter diversus, 96-well plate, 37° C., 10 h
[14] = Klebsiella pneumonia, 96-well plate, 37° C., 10 h
[15] = Proteus vulgaris, 96-well plate, 37° C., 10 h
[16] = Proteus mirabilis, 96-well plate, 37° C., 10 h
[17] = Aeromonas hydrophila, 96-well plate, 37° C., 10 h
[18] = E. coli BL21, 96-well plate, 37° C., 10 h
[19] = Serratia marcescens, 96-well plate, 37° C., 10 h
[20] = Pseudomonas aeruginosa, 96-well plate, 37° C., 10 h
[21] = Enterobacter cloacae, 96-well plate, 37° C., 10 h

PRT1096 (QLNVCNSNPCLHGGNCEDIYSSYHCSCPLGWSGKHCE; listed as Homo sapiens)
MIC M. catarrhalis (Moraxella catarrhalis; [1]): 12.5 µg/mL | MIC (E. coli DH5α): 12.5 µg/mL | MIC C. diversus (Citrobacter diversus; [1]): 50 µg/mL | MIC K. pneumonia (Klebsiella pneumonia; [1]): 50 µg/mL | MIC P. vulgaris (Proteus vulgaris; [1]): 12.5 µg/mL | MIC P. mirabilis (Proteus mirabilis; [1]): 12.5 µg/mL | MIC A. hydrophila (Aeromonas hydrophila; [1]): 50 µg/mL | MIC E. coli BL21 (E. coli BL21; [1]): 50 µg/mL | MIC S. marcescens (Serratia marcescens; [1]): 25 µg/mL | MIC P. aeruginosa (Pseudomonas aeruginosa; [1]): 50 µg/mL | MIC E. cloacae (Enterobacter cloacae; [1]): 12.5 µg/mL

PRT595 (CSCHASGVSPMECPPGGGACLCDPVTGACPCLPNVTGLACDRCADGYWNLVPGRGCQS; listed as Homo sapiens)
MIC M. catarrhalis (Moraxella catarrhalis; 96-well plate, 37° C., 10 h): 50 µg/mL | MIC (E. coli DH5α): 12.5 µg/mL | MIC C. diversus (Citrobacter diversus; 96-well plate, 37° C., 10 h): 12.5 µg/mL | MIC K. pneumonia (Klebsiella pneumonia; 96-well plate, 37° C., 10 h): 50 µg/mL | MIC P. vulgaris (Proteus vulgaris; 96-well plate, 37° C., 10 h): 50 µg/mL | MIC P. mirabilis (Proteus mirabilis; 96-well plate, 37° C., 10 h): 12.5 µg/mL | MIC A. hydrophila (Aeromonas hydrophila; 96-well plate, 37° C., 10 h): 50 µg/mL | MIC E. coli BL21 (E. coli BL21; 96-well plate, 37° C., 10 h): 50 µg/mL | MIC S. marcescens (Serratia marcescens; 96-well plate, 37° C., 10 h): 25 µg/mL | MIC P. aeruginosa (Pseudomonas aeruginosa; 96-well plate, 37° C., 10 h): 12.5 µg/mL | MIC E. cloacae (Enterobacter cloacae; 96-well plate, 37° C., 10 h): 12.5 µg/mL

PRT833 (CEANNGGCSHGCSHTSAGPLCTCPRGYELDTDQRTC; listed as Homo sapiens)
MIC (μg/mL) M. catarrhalis (Moraxella catarrhalis; [2]): 12.5 µg/mL | MIC (E. coli DH5α): 12.5 µg/mL | MIC (μg/mL) C. diversus (Citrobacter diversus; [3]): 50 µg/mL | MIC (μg/mL) K. pneumonia (Klebsiella pneumonia; [4]): 12.5 µg/mL | MIC (μg/mL) P. vulgaris (Proteus vulgaris; [5]): 50 µg/mL | MIC (μg/mL) P. mirabilis (Proteus mirabilis; [6]): 25 µg/mL | MIC (μg/mL) A. hydrophila (Aeromonas hydrophila; [7]): 12.5 µg/mL | MIC (μg/mL) E. coli BL21 (E. coli BL21; [8]): 25 µg/mL | MIC (μg/mL) S. marcescens (Serratia marcescens; [9]): 12.5 µg/mL | MIC (μg/mL) P. aeruginosa (Pseudomonas aeruginosa; [10]): 12.5 µg/mL | MIC (μg/mL) E. cloacae (Enterobacter cloacae; [11]): 50 µg/mL

PRT115 (SRNPCSSSPCRGGATCVLGPHGKNYTCRCPQGYQLDSSQLDCV; listed as Homo sapiens)
MIC (μg/mL) M. catarrhalis (Moraxella catarrhalis; [12]): 50 µg/mL | MIC (E. coli DH5α): 12.5 µg/mL | MIC (μg/mL) C. diversus (Citrobacter diversus; [13]): 25 µg/mL | MIC (μg/mL) K. pneumonia (Klebsiella pneumonia; [14]): 50 µg/mL | MIC (μg/mL) P. vulgaris (Proteus vulgaris; [15]): 12.5 µg/mL | MIC (μg/mL) P. mirabilis (Proteus mirabilis; [16]): 12.5 µg/mL | MIC (μg/mL) A. hydrophila (Aeromonas hydrophila; [17]): 12.5 µg/mL | MIC (μg/mL) E. coli BL21 (E. coli BL21; [18]): 50 µg/mL | MIC (μg/mL) S. marcescens (Serratia marcescens; [19]): 12.5 µg/mL | MIC (μg/mL) P. aeruginosa (Pseudomonas aeruginosa; [20]): 12.5 µg/mL | MIC (μg/mL) E. cloacae (Enterobacter cloacae; [21]): 25 µg/mL

PRT1114 (PSKECSLNVTCLDGSPCEGGSPAANCSCLEGLAGQRCQ; listed as Homo sapiens)
MIC M. catarrhalis (Moraxella catarrhalis; [1]): 25 µg/mL | MIC (E. coli DH5α): 25 µg/mL | MIC C. diversus (Citrobacter diversus; [1]): 12.5 µg/mL | MIC K. pneumonia (Klebsiella pneumonia; [1]): 50 µg/mL | MIC P. vulgaris (Proteus vulgaris; [1]): 25 µg/mL | MIC P. mirabilis (Proteus mirabilis; [1]): 50 µg/mL | MIC A. hydrophila (Aeromonas hydrophila; [1]): 25 µg/mL | MIC E. coli BL21 (E. coli BL21; [1]): 12.5 µg/mL | MIC S. marcescens (Serratia marcescens; [1]): 12.5 µg/mL | MIC P. aeruginosa (Pseudomonas aeruginosa; [1]): 25 µg/mL | MIC E. cloacae (Enterobacter cloacae; [1]): 25 µg/mL

PRT957 (APPCLDGSPCANGGRCTQLPSREAACLCPPGWVGERCQ; listed as Homo sapiens)
MIC (Moraxella catarrhalis; [2]): 12.5 µg/mL | MIC (E. coli DH5α): 12.5 µg/mL | MIC (Citrobacter diversus; [3]): 50 µg/mL | MIC (Klebsiella pneumonia; [4]): 25 µg/mL | MIC (Proteus vulgaris; [5]): 50 µg/mL | MIC (Proteus mirabilis; [6]): 25 µg/mL | MIC (Aeromonas hydrophila; [7]): 25 µg/mL | MIC (E. coli BL21; [8]): 25 µg/mL | MIC (Serratia marcescens; [9]): 12.5 µg/mL | MIC (Pseudomonas aeruginosa; [10]): 50 µg/mL | MIC (Enterobacter cloacae; [11]): 12.5 µg/mL

PRT111 (DLDECASRSKSGEEDPQPQCQHLCHNYVGGYFCSCRPGYELQEDTHSCQ; listed as Homo sapiens)
MIC (μg/mL) M. catarrhalis (Moraxella catarrhalis; [12]): 25 µg/mL | MIC (E. coli DH5α): 12.5 µg/mL | MIC (μg/mL) C. diversus (Citrobacter diversus; [13]): 12.5 µg/mL | MIC (μg/mL) K. pneumonia (Klebsiella pneumonia; [14]): 12.5 µg/mL | MIC (μg/mL) P. vulgaris (Proteus vulgaris; [15]): 25 µg/mL | MIC (μg/mL) P. mirabilis (Proteus mirabilis; [16]): 50 µg/mL | MIC (μg/mL) A. hydrophila (Aeromonas hydrophila; [17]): 25 µg/mL | MIC (μg/mL) E. coli BL21 (E. coli BL21; [18]): 12.5 µg/mL | MIC (μg/mL) S. marcescens (Serratia marcescens; [19]): 12.5 µg/mL | MIC (μg/mL) P. aeruginosa (Pseudomonas aeruginosa; [20]): 12.5 µg/mL | MIC (μg/mL) E. cloacae (Enterobacter cloacae; [21]): 50 µg/mL

Reference: patent US9833497B2, “Human originated EGF domain proteins and use of the same” (CHENGDU SOURCEBIO LIMITED-LIABILITY COMPANY, priority 2013, dated 2017)
